Laboratory results as given in patent US9040712B2, “Thiadiazole analogs thereof and methods for treating SMN-deficiency-related-conditions” (NOVARTIS AG, priority 2013, dated 2015).
pEC50: −log10 of the molar value.

The molecules below were run on SMN protein (assay: cellular SMN ELISA (SMN protein elevation)). Settings: myoblast cell line derived from SMNdelta7 mouse model; 24 hours compound treatment; concentration range 100 pM-10 uM.
Format: cell-based
Protocol: A cellular SMN ELISA was used to measure the effects of low molecular weight compounds on SMN protein elevation. Cells from a myoblast cell line derived from the SMNdelta7 mouse model (kind gift from Steve Burden, NYU) were seeded into a 384-well plate at a density of 3000 cells/well and treated with compounds for 24 hours. ELISA capture plates were prepared by coating 384-well plates (Immulon 4HBX) with 0.5 ug/mL of anti-SMN mAb (BD Science, Catalog number 610647) at 4° C. overnight. The plates were washed 5 times with 110 uL of PBS-Tween (0.05% Tween-20, PBST), blocked with 100 uL of 1% BSA in PBST for 2 hours and washed (5 times) with 100 uL of PBST. After 24 hours of compound treatment cells were lysed in a modified RIPA-buffer, on ice for 1 hour. 20 uL of lysate and 20 uL of 1% BSA were then added to the ELISA capture plates and incubated at 4° C. overnight. Plates were washed (5 times) with PBST and then incubated with 1:100 dilution of primary rabbit anti-SMN polyclonal antibody (Santa cruz, Catalog number SC-15320) at room temperature for 1 hour and subsequently washed (5 times) with 110 uL of PBST. This was followed by addition of 1:100 Goat anti-Rabbit IgG-HRP linked (Cell Signaling, Catalog number 7074) secondary antibody for 1 hour. Plates were then washed with PBST and incubated with 40 uL TMB substrate (Cell Signaling, Catalog number 7004L) at room temperature for 1-10 minutes with shaking. The reaction was stopped by addition of 40 uL of stop solution (Cell signaling, Catalog number 7002L) and absorption was measured at 450 nm. Data was reported as fold activation over DMSO control and EC50. ELISA assay condition: compound concentration range 100 pM-10 uM.

Compound	pEC50	SMN Activity Fold (fold activation over DMSO control)
COc1cc(-n2cccn2)ccc1-c1nnc(N(C)C2CC(C)(C)NC(C)(C)C2)s1 [Example 1, 5-(2-methoxy-4-(1H-pyrazol-1-yl)phenyl)-N-methyl-N-(2,2,6,6-tetramethylpiperidin-4-yl)-1,3,4-thiadiazol-2-amine]	7.20	2.45 fold
CN(c1nnc(-c2ccc3cc(O)ccc3c2)s1)C1CC(C)(C)NC(C)(C)C1 [Example 2, 6-(5-(Methyl(2,2,6,6-tetramethylpiperidin-4-yl)amino)-1,3,4-thiadiazol-2-yl)naphthalen-2-ol]	6.36	2.66 fold
COc1nc2ccccc2cc1-c1nnc(N(C)C2CC(C)(C)NC(C)(C)C2)s1 [Example 3, 5-(2-Methoxyquinolin-3-yl)-N-methyl-N-(2,2,6,6-tetramethylpiperidin-4-yl)-1,3,4-thiadiazol-2-amine]	6.47	2.67 fold
COc1cc2ccccc2cc1-c1nnc(N(C)C2CC(C)(C)NC(C)(C)C2)s1 [Example 4, 5-(3-Methoxynaphthalen-2-yl)-N-methyl-N-(2,2,6,6-tetramethylpiperidin-4-yl)-1,3,4-thiadiazol-2-amine]	6.05	2.48 fold
COc1cc(-n2cccn2)ccc1-c1nnc(NC2CC(C)(C)N(C)C(C)(C)C2)s1 [Example 5, 5-(2-Methoxy-4-(1H-pyrazol-1-yl)phenyl)-N-(1,2,2,6,6-pentamethylpiperidin-4-yl)-1,3,4-thiadiazol-2-amine]	7.06	2.88 fold
COc1cc(-c2cnn(C)c2)ccc1-c1nnc(N(C)C2CC(C)(C)NC(C)(C)C2)s1 [Example 6, 5-(2-Methoxy-4-(1-methyl-1H-pyrazol-4-yl)phenyl)-N-methyl-N-(2,2,6,6-tetramethylpiperidin-4-yl)-1,3,4-thiadiazol-2-amine]	7.36	2.49 fold
COc1cc(-c2cn[nH]c2)ccc1-c1nnc(N(C)C2CC(C)(C)NC(C)(C)C2)s1 [Example 7, 5-(2-Methoxy-4-(1H-pyrazol-4-yl)phenyl)-N-methyl-N-(2,2,6,6-tetramethylpiperidin-4-yl)-1,3,4-thiadiazol-2-amine]	7.42	2.86 fold
COc1cc(-c2ccn(C)c(=O)c2)ccc1-c1nnc(N(C)C2CC(C)(C)NC(C)(C)C2)s1 [Example 8, 4-(3-Methoxy-4-(5-(methyl(2,2,6,6-tetramethyl-piperidin-4-yl)amino)-1,3,4-thiadiazol-2-yl)phenyl)-1-methylpyridin-2(1H)-one]	6.87	3.20 fold
COc1cc(-c2ccc(O)nc2)ccc1-c1nnc(N(C)C2CC(C)(C)NC(C)(C)C2)s1 [Example 9, 5-(3-Methoxy-4-(5-(methyl(2,2,6,6-tetramethyl-piperidin-4-yl)amino)-1,3,4-thiadiazol-2-yl)phenyl)pyridin-2-ol]	6.11	2.46 fold
COc1cc(-c2ccc(=O)n(C)c2)ccc1-c1nnc(N(C)C2CC(C)(C)NC(C)(C)C2)s1 [Example 10, 5-(3-Methoxy-4-(5-(methyl(2,2,6,6-tetramethyl-piperidin-4-yl)amino)-1,3,4-thiadiazol-2-yl)phenyl)-1-methylpyridin-2(1H)-one]	7.10	2.65 fold
Cc1cc(-c2cnn(C)c2)ccc1-c1nnc(N(C)C2CC(C)(C)NC(C)(C)C2)s1 [Example 11, N-Methyl-5-(2-methyl-4-(1-methyl-1H-pyrazol-4-yl)phenyl)-N-(2,2,6,6-tetramethylpiperidin-4-yl)-1,3,4-thiadiazol-2-amine]	6.16	2.84 fold
CN(c1nnc(-c2ccc(-c3ccn(C)c(=O)c3)cc2OC(F)(F)F)s1)C1CC(C)(C)NC(C)(C)C1 [Example 12, 1-Methyl-4-(4-(5-(methyl(2,2,6,6-tetramethyl-piperidin-4-yl)amino)-1,3,4-thiadiazol-2-yl)-3-(trifluoromethoxy)phenyl)pyridin-2(1H)-one]	6.05	2.20 fold
COc1cc(-c2c(C)n[nH]c2C)ccc1-c1nnc(N(C)C2CC(C)(C)NC(C)(C)C2)s1 [Example 13, 5-(4-(3,5-Dimethyl-1H-pyrazol-4-yl)-2-methoxy-phenyl)-N-methyl-N-(2,2,6,6-tetramethylpiperidin-4-yl)-1,3,4-thiadiazol-2-amine]		inactive
CN(c1nnc(-c2ccc(-c3cnn(C)c3)cc2C(F)(F)F)s1)C1CC(C)(C)NC(C)(C)C1 [Example 14]		inactive
CN(c1nnc(-c2ccc(-c3cnn(C)c3)cc2O)s1)C1CC(C)(C)NC(C)(C)C1 [Example 15, 2-(5-(Methyl(2,2,6,6-tetramethylpiperidin-4-yl)amino)-1,3,4-thiadiazol-2-yl)-5-(1-methyl-1H-pyrazol-4-yl)phenol]	7.49	3.14 fold
CN(c1nnc(-c2ccc(-c3ccc(=O)n(C)c3)cc2O)s1)C1CC(C)(C)NC(C)(C)C1 [Example 17, 5-(3-Hydroxy-4-(5-(methyl(2,2,6,6-tetramethyl-piperidin-4-yl)amino)-1,3,4-thiadiazol-2-yl)phenyl)-1-methylpyridin-2(1H)-one]	7.44	2.74 fold
CN(c1nnc(-c2ccc(-c3ccn(C)c(=O)c3)cc2O)s1)C1CC(C)(C)NC(C)(C)C1 [Example 18, 4-(3-Hydroxy-4-(5-(methyl(2,2,6,6-tetramethyl-piperidin-4-yl)amino)-1,3,4-thiadiazol-2-yl)phenyl)-1-methylpyridin-2(1H)-one]	7.21	3.36 fold
CN(c1nnc(-c2ccc(-c3ccc(O)nc3)cc2O)s1)C1CC(C)(C)NC(C)(C)C1 [Example 19, 5-(3-Hydroxy-4-(5-(methyl(2,2,6,6-tetramethyl-piperidin-4-yl)amino)-1,3,4-thiadiazol-2-yl)phenyl)pyridin-2-ol]	7.29	2.85 fold
CN(c1nnc(-c2cc3ccc(O)cc3cc2O)s1)C1CC(C)(C)NC(C)(C)C1 [Example 20, 3-(5-(Methyl(2,2,6,6-tetramethylpiperidin-4-yl)amino)-1,3,4-thiadiazol-2-yl)naphthalene-2,7-diol]	7.32	2.63 fold
Oc1ccc2cc(-c3nnc(N4C[C@H]5CNC[C@H]5C4)s3)c(O)cc2c1 [Example 21, 3-(5-((3aR,6aS)-Hexahydropyrrolo[3,4-c]pyrrol-2(1H)-yl)-1,3,4-thiadiazol-2-yl)naphthalene-2,7-diol]	6.49	2.66 fold
CN(c1nnc(-c2cc3ccccc3cc2O)s1)C1CC(C)(C)NC(C)(C)C1 [Example 22, 3-(5-(Methyl(2,2,6,6-tetramethylpiperidin-4-yl)amino)-1,3,4-thiadiazol-2-yl)naphthalen-2-ol.HBr]	6.60	2.70 fold
